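How tested: cells in 96-well plates exposed to compound for 48 hours at five concentrations. Definition used: TGI = concentration required for complete inhibition of growth.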
What was measured:
Test in all cases: NCI-60 cell line screen, 48 h
[1] = tested on: CAKI-1 renal
[2] = tested on: COLO 205 colon
[3] = tested on: EKVX NSCLC
[4] = tested on: HOP-62 NSCLC
[5] = tested on: HOP-92 NSCLC
[6] = tested on: HT29 colon
[7] = tested on: OVCAR-5 ovarian
[8] = tested on: RPMI-8226 leukemia
[9] = tested on: SK-MEL-2 melanoma
[10] = tested on: SK-MEL-28 melanoma
[11] = tested on: SW-620 colon
[12] = tested on: TK-10 renal
[13] = tested on: U251 CNS
[14] = tested on: UACC-62 melanoma

SMILES | TGI [1] | TGI [2] | TGI [3] | TGI [4] | TGI [5] | TGI [6] | TGI [7] | TGI [8] | TGI [9] | TGI [10] | TGI [11] | TGI [12] | TGI [13] | TGI [14]
CCCCNc1nc(NC2OCC(OC(C)=O)C(OC(C)=O)C2OC(C)=O)c(N=O)c(=O)n1C (stereo not drawn) | > 10 µM | > 10 µM | > 10 µM | > 10 µM | > 10 µM | > 10 µM | > 10 µM | > 10 µM | > 10 µM | > 10 µM | > 10 µM | > 10 µM | > 10 µM | > 10 µM
O=c1[nH]nc(-c2ccccc2)n1O | > 100 µM | > 100 µM | > 100 µM | > 100 µM | > 100 µM | > 100 µM | > 100 µM | > 100 µM | > 100 µM | > 100 µM | > 100 µM | > 100 µM | > 100 µM | > 100 µM
COc1cccc(C(=O)C#Cc2cnc(OC)nc2OC)c1 | 4.39 µM | 3.88 µM | 3.9 µM | 47.8 µM | 4.28 µM | 2.67 µM | 8.05 µM | 6.43 µM | 3.95 µM | 4.22 µM | 1.94 µM | 2.91 µM | 7.27 µM | 3.08 µM
OC(c1cccnc1Cl)c1nc2ccccc2c2ccnc(Cl)c12 (stereo not drawn) | > 100 µM | > 100 µM | > 100 µM | 15.3 µM | > 100 µM | > 100 µM | > 100 µM | 8.57 µM | > 100 µM | > 100 µM | > 100 µM | > 100 µM | > 100 µM | 23.7 µM
Cn1c(=O)n2n(c1=O)C(C)(C13CC4CC(CC(C4)C1)C3)C13CC4CC(CC1C4)CC23 (stereo not drawn) | > 100 µM | > 100 µM | > 100 µM | > 100 µM | > 100 µM | > 100 µM | > 100 µM | > 100 µM | > 100 µM | > 100 µM | > 100 µM | > 100 µM | > 100 µM | > 100 µM
CCC1C(c2ccccc2O)c2cc3c(cc2OC1N1CCOCC1)OCO3 (stereo not drawn) | 34.1 µM | 30.9 µM | 25.4 µM | 28.8 µM | 27.6 µM | 26.4 µM | 28.7 µM | 43.8 µM | 30.8 µM | 33.9 µM | 33 µM | 28 µM | 26.4 µM | 27.1 µM
CN1CCN(c2ccc3c(c2)NCC(=O)N3)CC1 | > 100 µM | > 100 µM | > 100 µM | > 100 µM | > 100 µM | > 100 µM | > 100 µM | > 100 µM | > 100 µM | > 100 µM | > 100 µM | > 100 µM | > 100 µM | > 100 µM
CC(C)/C(Cl)=N/OC(=O)Nc1ccc(Cl)c(Cl)c1 | 3.17 µM | 3.39 µM | 3.95 µM | 33.1 µM | 3.2 µM | 13 µM | 30.2 µM | 6.92 µM | 34.1 µM | 8.5 µM | 4.35 µM | 10.9 µM | 43.8 µM | 26.5 µM
c1ccc(N=C2c3ccsc3C(=Nc3ccccc3)c3ccsc32)cc1 | 10.2 µM | 6.01 µM | 4.31 µM | 3 µM | 9.37 µM | 13.7 µM | 3.12 µM | 11.7 µM | 3.38 µM | 3.97 µM | 3.93 µM | 13.7 µM | 4.01 µM | 3.9 µM
COC(=O)C(Cc1c[nH]c2ccccc12)N=C1Nc2ccncc2S(=O)(=O)N1c1cccc(OC(C)C)c1 (stereo not drawn) | > 100 µM | > 100 µM | > 100 µM | > 100 µM | 43.3 µM | > 100 µM | > 100 µM | 54.4 µM | > 100 µM | > 100 µM | > 100 µM | > 100 µM | > 100 µM | > 100 µM
CC(C)(C)OC(=O)NCCCCC(N)NC(=O)c1ccccc1 (stereo not drawn) | > 100 µM | > 100 µM | > 100 µM | > 100 µM | > 100 µM | > 100 µM | > 100 µM | > 100 µM | > 100 µM | > 100 µM | > 100 µM | > 100 µM | > 100 µM | > 100 µM
COC(=O)C1CCC(=O)N1C(c1ccc2c(c1)OCO2)c1cc(OC)c(OC)c(OC)c1 (stereo not drawn) | > 100 µM | > 100 µM | > 100 µM | > 100 µM | > 100 µM | > 100 µM | > 100 µM | > 100 µM | > 100 µM | > 100 µM | > 100 µM | > 100 µM | > 100 µM | > 100 µM

— PubChem BioAssay (NCI)
